Test results taken from patent publication US20260034200A1, “TOLEROGENIC PEPTIDES” (University of Birmingham, priority 2022, published 2026).

How the values were obtained:
[1] = test system: PBMCs from T1D patients (CD25+ CD71+ CTVmid CD4+ T-cells); assay: FAIM assay with PBMCs from T1D patients; assay type: cell-based, human; conditions: 34/38 T1D patients
Description: FIG. 7. GAD65 P10Sol response rate in T1D patients. (A) T1D PBMCs were screened using the FAIM assay for responsiveness to GAD65 P10 30-mer and GAD65 P10Sol with paired ^3H-thymidine samples were acquired for each condition. A positive response for FAIM assay required a proliferating CD25^+ CD71^+ CD4 T-cell count >25 and the population SI to be ≥2× the negative control. A positive response for the ^3H-thymidine assay required raw counts >1000 and a SI of ≥3× the negative control. […] The scale for both heat maps is Log 2 (stimulation index (SI)). […] (B) Agreement analysis for the outcomes of the flow cytometric and ^3H-thymidine proliferation readouts of the FAIM assay. (C) Paired analysis of stimulation indexes from FAIM^+ and ^3H-thymidine readouts, wilcoxon matched-pairs sign rank test.
Soluble candidate peptide GAD65 P10Sol (SEQ ID NO 23) was used as a representative peptide and tested for induction of tolerance in a suitable HLA-DR transgenic mouse model (FIG. 1A). […] The FAIM assay involves a fluorescent dye-labelled CD4^+ cell enriched culture with a primary flow cytometric readout assessing CD4 T-cell fluorescent dye dilution and cell-surface activation marker expression with optional paired readouts of ^3H-thymidine incorporation and secreted cytokine measurement. […]

[2] = test system: peripheral blood mononuclear cells (PBMCs); assay: Human PBMC 3H-thymidine incorporation assay; assay type: cell-based; conditions: for positive response rate in 3H-thymidine incorporation assay: day 7, positive = SI>=3 and ccpm >1000
Description: Fresh blood samples were collected in CPDA-tubes. PBMCs from lymphocyte cones or fresh blood were isolated by Ficoll gradient centrifugation, frozen in 40% RPMI-1640, 50% heat inactivated fetal bovine serum (Sigma; F9665) and 10% DMSO and stored in liquid nitrogen until required. Thawed PBMCs were cultured at 1.5×10^6 cells/mL in X-VIVO-15 medium ((Lonza BE02-061Q) supplemented with 5% v/v human AB serum (Sigma H4522), 1× penicillin/streptomycin (Gibco 15140122)) either in the presence of GAD65 P10 30-mer antigen between 20-50 μg/mL or absence of antigen (negative control). Peptide response was measured by 3H radioactive thymidine incorporation on day 5 and day 7, by pulsing cell cultures with ^3H-thymidine (Perkin Elmer), as previously described (Mazza et al., 2002). Positive responses had corrected counts per minute (ccpm) counts >1000 and a stimulation index (SI)≥3, calculated as the fold-change of peptide stimulated condition over the negative control.
The workflow to design and validate tolerogenic apitopes (antigen processing independent T-cell epitopes) begins with identification of peptides predicted to bind to various HLA-DR molecules (pan-DR binders) using a combination of publicly available MHC-binding algorithms (FIG. 1A). In silico analyses identified 9 or 15 amino acid peptides within GAD65 that were extended to ˜30-mer peptides (FIG. 1B) to encourage antigen processing and presentation of a naturally processed epitope (Anderton et al., 2002). To test whether the designed 30-mer peptides could be correctly processed and preferentially induce immune responses in T1D patients, we screened for GAD65 30-mers responses in isolated peripheral blood mononuclear cells (PBMCs) from 20 non-diabetic healthy controls and 40 adults with T1D. […] On day 7 of the ^3H-thymidine incorporation assay, 20% (4/20) of healthy controls had shown a positive response to GAD65 P10 30-mer compared to 58% (23/40) of T1D patients (FIG. 1C).

With “DAAWGGGLLMSRKHKWKLSGVERANSVTWN [P10 30-mer]” the “T1D patients responding (FAIM+)” value [1] was 89%, the “average magnitude of the proliferative response” value ([2]; T1D patients vs healthy controls, Mann-Whitney p=0.0146) was “significantly increased” and the “positive response rate in 3H-thymidine incorporation assay” value ([2]; T1D patients (23/40)) was 58%. The “positive response rate in 3H-thymidine incorporation assay” value ([2]; non-diabetic healthy controls (4/20)) was 20%.
